Experimental data published in patent US20250221968A1, “TREATMENTS AND METHODS FOR INCREASING DOPAMINE” (Oxford University Innovation Limited, priority 2022, published 2025).
Entries after “also recorded” stand apart in the source; their conditions may differ.

Columns and labels:
nAChRs [1] = test: Calcium imaging of GCaMP6f in DA axons in DLS, ex vivo slices of DAT-Cre:Ai95D mice; type: cell-based, mouse; conditions: DHβE 1 μM
Description: As in a previous study^21, an Olympus BX51WI microscope equipped with a OptoLED Lite system (CAIRN Research), Prime Scientific CMOS (sCMOS) Camera (Teledyne Photometrics), and a ×40/0.8 NA water-objective (Olympus UK) was used for wide-field fluorescence imaging of GCaMP6f in dopaminergic axons in DLS in ex vivo slices in response to single and trains (4 pulses, 100 Hz) of electrical stimulus pulses. Images were acquired at 16.6 Hz frame rate every 2.5 min using Micro-Manager 1.4, with stimulation and recording synchronised using custom-written procedures in Igor Pro 6 (WaveMetrics) and an ITC-18 A/D board (Instrutech). Image files were analysed with Matlab R2019b and Fiji 1.5. The inventors extracted fluorescence intensity from the region of interest (ROI) and from an equal background area where there was no GCaMP6f expression (on the stimulating electrode). After background subtraction, the Ca^2+ transients were bleach-corrected by fitting an exponential curve function through both the baseline (2 s prior to stimulation) and the last 1 s in a 7.2 s recording window. The order of single and train stimulations was alternated and equally distributed and data were collected in duplicate before and after a change in extracellular experimental condition. Data are expressed as ΔF/F where F is the fitted curve. […]

nAChRs [2] = test: Ex vivo slice voltammetry (FCV): [DA]o evoked by light pulse after prior electrical stimulus, striatal slices from DAT-Cre mice; type: cell-based, mouse; conditions: DHβE 1 μM
From the text: (§1) Stimulations were timed to avoid FCV scans.
The Inventors also explored whether prior ChI activation limits subsequent DA release when driven by targeted optogenetic activation of DA axons (DADA). The Inventors used an electrical stimulus to initially drive DA release (DADA+DAChI) and then assessed DADA driven by a subsequent light activation of ChR2-expressing DA axons in ex vivo striatal slices from DAT-Cre mice (FIG. 2a,b). […] For inter-stimulus intervals <100 ms (DLS) or <50 ms (NAcc), this depression was relieved when a nAChR antagonist was present (DHβE, 1 μM).

D2 receptors = molecular target: T1, D2 receptors (Mus musculus, UniProt P61168); test: Ex vivo slice voltammetry: DA release after light activation of ChIs, 1p vs 3p Estim, ChAT-Cre:Ai32 slices, D2 antagonism; type: cell-based; conditions: DLS, L-741,626 1 μM
T1 construct: striatal slices from ChAT-Cre: Ai32 mice; from tissue; host or cells: acute striatal slices (DLS) of ChAT-Cre:Ai32 mice
From the text: as §1

muscarinic receptors = conditions: DLS, atropine 2 μM
Description: For fast-scan cyclic voltammetry (FCV) in acute coronal slices, animals were anaesthetised with isoflurane. Brains were quickly removed into ice-cold, high Mg^2+ cutting solution containing in mM: 85 NaCl, 25 NaHCO3, 2.5 KCl, 1.25 NaH2PO4, 0.5 CaCl2, 7 MgCl2, 10 glucose, 65 sucrose. Brains were then blocked, and 300 μm coronal slices were cut on a vibratome (Leica VT1200S) between +1.5 to +0.5 mm from bregma containing caudate-putamen and nucleus accumbens. Slices recovered at 32° C. for 30-40 min after dissection and were subsequently kept at room temperature. Slices were maintained and recorded in artificial cerebrospinal fluid (aCSF) containing in mM: 130 NaCl, 25 NaHCO3, 2.5 KCl, 1.25 NaH2PO4, 2.5 CaCl2), 2 MgCl2, 10 glucose. The aCSF was saturated with 95% O2/5% CO2; recordings were made at 32-33° C. Extracellular DA concentration ([DA]o) was measured using FCV with 7 μm-diameter carbon fiber microelectrodes (CFMs; tip length 50-100 μm) and a Millar voltammeter (Julian Millar, Barts and the London School of Medicine and Dentistry) as previously^55. […]
The Inventors tested whether the DA release dynamics at the timepoints of ChI rebound activity are consistent with nAChR desensitisation. […] As a potential readout of the timecourse of nAChR desensitisation, the Inventors explored how the difference in [DA]o evoked by triplet versus single pulses (100 Hz) varied over time. […]

nAChRs [3] = test: Conditioned place preference testing after bilateral dorsal striatal infusion; type: in vivo, mouse; conditions: freely moving mice, 10 μg/side bilateral dorsal striatum, two days of conditioning
From the text: Cannulae Placements: Male C57BL/6N mice (42-50 days) were anesthetised with isoflurane (5% induction; 1.5-2% maintenance) and placed on a stereotaxic frame for surgery. Bilateral injection needles (O.D. 0.21 mm, I.D. 0.11 mm, RWD, China) with the guide cannula (O.D. 0.41 mm, I.D. 0.25 mm, RWD, China) were implanted to the dorsal striatum either vertically or at a small angle from the vertical, with the tip of each cannula aimed at coordinates: AP+1.0 mm; ML+/−1.6 mm to bregma; DV-2.4 mm (from dura). Mice recovered for three days after surgery.
Conditioned Place Preference Testing: In CPP experiments, mice were placed in a 40 cm×40 cm transparent plexiglass arena which was divided into two equal chambers separated by doorway. The chambers were decorated with either horizontal or vertical stripes. The movement of animals was recorded and analysed with Smart V3.0 tracking software (Panlab, Spain).
On day 1, mice were allowed to freely shuttle between two chambers to assess place preference at baseline, expressed as % time spent in right chamber. […] On day 4, the post-conditioning chamber preference was calculated as the % of time spent in the right mecamylamine-associated chamber compared to on pre-conditioning day 1. […]

nAChRs [4] = test: 6-OHDA lesioning and cylinder test (single paw reaching), mouse model of PD; type: in vivo; conditions: unilateral 6-OHDA lesioned mice, 10 μg into lesioned striatum, 10 min after injection
Description: 6-OHDA Lesioning and Reaching Task: On the lesioning day, 6-hydroxydopamine was injected into the right dorsolateral striatum through the pre-implanted cannula (1 μl of a 0.9% saline solution containing 4 μg/μL 6-OHDA (Sigma-Aldrich) and 0.02% acetic acid) over 5 min. On the testing day, mecamylamine (10 μg/side) was injected via the cannula in a volume of 0.5 μl over 1 min into the lesioned (right) striatum. Animals were sacrificed immediately after behavioural testing. The 6-OHDA-induced loss of dopamine axons was confirmed by the ˜50% decrease of fluorescence intensity of TH staining in slices compared to the contralateral DLS which was measured with ImageJ (1.52p). The anterior commissure used as 0% background fluorescence. Animals were briefly sedated with isoflurane during the injection of 6-OHDA and mecamylamine.
A cylinder test was performed before and 10 min after 6-OHDA injection to confirm an acute effect of 6-OHDA. After one day of […], the test was performed again before and 10 min after mecamylamine injection. No habituation of the mice to the cylinder was conducted. During the test, mice were individually placed into a glass cylinder (diameter 19 cm, height 25 cm). […] Only wall touches with a single paw, ipsilateral or contralateral forelimb, were counted in the analysis. Data are contralateral touches expressed as a percentage of total number of single-paw touches. […]

nAChRs [5] = test: Anesthetised in vivo voltammetry in DLS; design: species or system mouse; conditions: urethane-anesthetised wild-type mice, mecamylamine 2 mg/kg i.p. per FIG. 4 legend
Description: Wild type mice were anesthetised with urethane (1.4-1.9 g/kg, i.p.; Biolab), supplemented with additional urethane (0.2 g/kg) every 1-2 hr as required. All wounds and pressure points were infiltrated with bupivacaine (0.5%). Upon reaching surgical anaesthesia, the head was fixed in a stereotaxic frame (Kopf, USA). Core temperature was maintained at 35-36° C. using a homeothermic blanket and monitored via a rectal probe (TR-100, Fine Science Tools). A round piece of skull overlying the left hemisphere was removed to target the DLS (AP+1.0 mm, ML 1.6 mm, DV 2.2 mm to Bregma). A stimulating and recording array consisting of a carbon-fiber microelectrode and a bipolar stimulating electrode (MS303/3-A/SPC, P1 Technology) was positioned in the DLS. The Ag/AgCl reference electrode was implanted in another part of the forebrain. […] The location of the tip of FCV electrode was confirmed histologically.
For striatal electrical stimulation, 0.65 mA current (200 μs) was delivered through a bipolar stimulating electrode (0.005 inch, MS303/3-A/SPC, P1 Technologies). The stimulating electrode tips were separated by ˜500 μm and were glued to the FCV recording electrode to fix the tip of the FCV electrode between the two stimulating poles. […]

T1 sequence (P61168 whole entry): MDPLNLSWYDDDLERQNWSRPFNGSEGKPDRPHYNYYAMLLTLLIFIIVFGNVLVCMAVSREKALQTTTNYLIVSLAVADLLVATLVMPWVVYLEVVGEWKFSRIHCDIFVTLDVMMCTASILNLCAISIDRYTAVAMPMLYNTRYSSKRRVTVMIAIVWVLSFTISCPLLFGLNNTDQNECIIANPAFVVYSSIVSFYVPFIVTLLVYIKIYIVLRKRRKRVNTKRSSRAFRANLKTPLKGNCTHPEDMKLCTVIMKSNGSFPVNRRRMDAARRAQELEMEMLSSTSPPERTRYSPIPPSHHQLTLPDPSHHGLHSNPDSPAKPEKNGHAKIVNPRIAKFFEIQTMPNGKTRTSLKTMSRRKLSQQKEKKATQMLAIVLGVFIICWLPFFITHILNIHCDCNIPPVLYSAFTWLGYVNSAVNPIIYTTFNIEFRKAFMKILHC

CO[C@H]1CC=C2CCN3CCC4=C(CC(=O)OC4)[C@]23C1 [DHβE, Dihydro-β-erythroidine]
axonal GCaMP6f fluorescence for a 4-pulse train (100 Hz) compared to a single pulse (nAChRs [1]): markedly greater
depression of [DA]o evoked by a subsequent light pulse after an electrical stimulus (nAChRs [2]; DLS, inter-stimulus intervals <100 ms): relieved
depression of [DA]o evoked by a subsequent light pulse after an electrical stimulus (nAChRs [2]; NAcc, inter-stimulus intervals <50 ms): relieved

OC1(c2ccc(Cl)cc2)CCN(Cc2c[nH]c3ccccc23)CC1 [L-741,626]
dynamic DA release response after light activation of ChIs (100-400 ms interval) (D2 receptors): persists

CN1[C@@H]2CC[C@H]1C[C@@H](OC(=O)C(CO)c1ccccc1)C2 (some centres unmarked) [atropine]
dynamic DA release response after light activation of ChIs (100-400 ms interval) (muscarinic receptors): persists

CNC1(C)C2CCC(C2)C1(C)C (centres unmarked) [mecamylamine]
conditioned-place preference for the drug-conditioned chamber (nAChRs [3]): developed a conditioned-place preference
motor deficits: contralateral forelimb single-paw touching in cylinder test (nAChRs [4]): reduces deficits; also recorded: remediated these motor deficits
[DA]o evoked by local striatal stimulation with brief electrical pulse trains (nAChRs [5]): significantly increased
